According to patent US20240166658A1, “PORPHYRIN DERIVATIVES AND USES THEREOF” (University of Tasmania, priority 2021, published 2024):

What was measured:
[1] = Colorimetric calibration chart, RGB response to known PFOA concentrations; details: PFOA 0.7 ppm, dichloromethane
Protocol: The host molecules were combined with known concentrations of PFOA to provide RGB colour responses, which were used to create a colorimetric calibration chart that could be trialled as an indicator for estimating the total concentration of a range of any PFCAs. Solutions of each host molecule (1.00×10^−5 M) were prepared in dichloromethane. Solutions of PFOA in dichloromethane were prepared across a range of concentrations (0→16 ppm, 4.00×10^−5 M). Each host (2 mL) was combined with each PFOA concentration (1 mL, final concentration 0→1.33×10^−5 M) and photographed under equivalent lighting conditions. The average colour of each solution was then found using ImageJ RGB analysis, and a colour chart was produced.
For this reason, parametrization of the RGB values can be useful for interpreting results. The RGB response parameter can be calculated using the RGB values of the “blank” host solution (Šafranko et al., 2019) and the effective intensities of the individual RGB values of a sample (Tahir et al., 2016):
Here, H, indicates the values for the host solution, and S, indicates the response for a sample containing a PFCA, so that ΔR, ΔG, and ΔB give the colour differences. The RGB parameter is the response due to the relative difference in the RGB intensities:
The RGB values collected for each host with a range of known concentrations of PFOA in dichloromethane were parameterized and used to determine a relationship between concentration of analyte and RGB response values. […] The relationship between RGB response values and concentrations of PFOA could now be tested for accuracy in determining the concentration of any PFCA.

[2] = UV-Vis host-guest titration, association constant; format: binding
Protocol: Path length of the quartz cell was 1 cm. For UV-vis titrations, a stock solution of host was prepared (2.2×10^−3 M) in dichloromethane (DCM) and serially diluted to the required concentrations. Working solutions of tetrabutylammonium (TBA) anion salts or guest molecules were prepared in the same manner Host−guest titrations used solutions of guest prepared in the working concentration of host solution, according to the procedure of Thordarson, 2011.
UV-vis spectroscopic host−guest titrations were performed in accordance with the methodologies of Thordarson, 2011. Solutions of host in dichloromethane were prepared. Solutions of guest were then prepared in the host solution. Aliquots of guest in host solution were added to host solution and sequentially analysed until a known molar equivalent of guest was added. The amount of guest added per aliquot was ascertained by a preliminary screening experiment; strong association constants required smaller molar equivalents so more information could be collected. […] The inverse is true for weaker binding interactions. Molar equivalents between 0.1-5 typically provided adequate information for modelling. The data was then used to simulate binding isotherms using www.supramolecular.org (Hibbert and Thordarson, 2016). The data was fitted to 1:1, 1:2 and 2:1 equilibria making no assumptions about the cooperativity of the binding interactions and modelled using different algorithms. These experiments mainly used the Nelder-Mead (Simplex) method.
UV-Vis spectroscopy binding studies were used to determine the association constant for the host (9)−PFOA complex.
A host solution of host (9) in dichloromethane was monitored using UV-Vis analysis as 0.5-10 equivalents of each PFAS was added. […] The data was processed using Bindfit isotherm simulators using both Nelder-Mead and L-BFGS-B methods (Thordarson, 2011).
To highlight any potential binding preferences across the PFCAs from the host molecules, triplicates of host−guest addition titrations were performed using host (9) and the TBA salts of the nine different deprotonated PFCAs.

[3] = PFCA guest response across the nine PFCAs (UV-Vis, RGB, one-way ANOVA variance); details: dichloromethane
Protocol: Experiments were performed at concentrations that could be monitored by the naked eye for practical sensing of PFAS in the field. Complexes of hosts (9), (11) and (12) were formed with the nine different perfluorocarboxylic acids (PFCAs) shown in Table 2 above and the colours of each host−PFCA complex were photographed in a lightbox and analysed using ImageJ software RGB analysis. Pixels of the solution were chosen at random to provide an RGB value. Multiple RGB values were recorded for each host−PFCA solution, and an average colour can be produced. From those values an RGB parameter was used to give a response value for modelling (Tahir et al., 2016).
After preliminary screenings, UV-Vis spectra were collected before and after the addition of 1 molar equivalent of each PFCA for each host, and the degree of complexation was noted by shifts in the Soret bands and formation of a peak at ca. 650 nm. To eliminate dilution effects, PFCA guest solutions were prepared in the equivalent concentration of host. If there was a notable host−guest interaction for a particular PFCA, the host−guest binding was investigated with more rigorous UV-Vis experiments, binding studies, and further colour analyses. Throughout these investigations, PFOA was considered the “average” PFCA both because of its position in the range of PFCA sizes and because its prevalence is often an indication of broader PFAS contamination. In any experiment where binding was further investigated for a particular PFCA, it was typically replicated with PFOA for comparison.
One-way factorial ANOVA was used to examine the dependence (or independence) of two or more factors affecting the dependent variable concurrently, in the present case the change in absorption, or the change in RGB response across the tested PFCAs, or across the different hosts. This analysis was used to determine the variance in the responses of each host across the different PFCAs. […]

[4] = short, medium and long chain sensor molecules with PFOA

Row | SMILES | ΔE between host and lowest PFOA concentration [1] | K ([2]; 1 Host:1 Guest binding mode) | K11 ([2]; 1 Host:2 Guest binding mode) | K12 ([2]; 1 Host:2 Guest binding mode) | K [2, 4] [M⁻¹] | colorimetric response to all nine PFCAs [3] | association constant (Ka) ([2]; host 1.01×10^−6 M in dichloromethane, TBAPFO aliquots, 1:1, Nelder-Mead and L-BFGS-B) [M⁻¹] | K value (averaged association constant Ka) ([2]; host (9) in dichloromethane, triplicate, TBA salt and acid, Bindfit)
1 | O=C(Nc1ccccc1-c1c2nc(c(-c3ccccc3NC(=O)C(F)(F)C(F)(F)C(F)(F)C(F)(F)C(F)(F)C(F)(F)C(F)(F)C(F)(F)C(F)(F)C(F)(F)C(F)(F)F)c3ccc([nH]3)c(-c3ccccc3NC(=O)C(F)(F)C(F)(F)C(F)(F)C(F)(F)C(F)(F)C(F)(F)C(F)(F)C(F)(F)C(F)(F)C(F)(F)C(F)(F)F)c3nc(c(-c4ccccc4NC(=O)C(F)(F)C(F)(F)C(F)(F)C(F)(F)C(F)(F)C(F)(F)C(F)(F)C(F)(F)C(F)(F)C(F)(F)C(F)(F)F)c4ccc1[nH]4)C=C3)C=C2)C(F)(F)C(F)(F)C(F)(F)C(F)(F)C(F)(F)C(F)(F)C(F)(F)C(F)(F)C(F)(F)C(F)(F)C(F)(F)F [host (12), α,α,α,α-5,10,15,20-tetrakis(2-(tricosafluorododecanoylamino)phenyl) porphyrin] | 24 | 1.58 × 10^5 | 1.49 × 10^7 | 1.17 × 10^2 | 1.67e+06 | provided a colorimetric response | – | –
2 | O=C(Nc1ccccc1-c1c2nc(c(-c3ccccc3NC(=O)C(F)(F)C(F)(F)C(F)(F)C(F)(F)C(F)(F)C(F)(F)C(F)(F)F)c3ccc([nH]3)c(-c3ccccc3NC(=O)C(F)(F)C(F)(F)C(F)(F)C(F)(F)C(F)(F)C(F)(F)C(F)(F)F)c3nc(c(-c4ccccc4NC(=O)C(F)(F)C(F)(F)C(F)(F)C(F)(F)C(F)(F)C(F)(F)C(F)(F)F)c4ccc1[nH]4)C=C3)C=C2)C(F)(F)C(F)(F)C(F)(F)C(F)(F)C(F)(F)C(F)(F)C(F)(F)F [host (9), α,α,α,α-5,10,15,20-tetrakis(2-(pentadecafluorooctanoylamino)phenyl)porphyrin] | 11 | – | – | – | 1.77e+06 | colorimetric response was visible | ~2.8e+06 | 109574
